# Measurements reported in ChEMBL document CHEMBL1697723, “A predictive ligand-based Bayesian model for human drug-induced liver injury” (Drug Metab Dispos, 2010).
# Counter-ions that a name gives are not always drawn.
# System: Hepatotoxicity
# Assay: Human drug-induced liver injury (DILI) modelling dataset from Ekins et al
# Settings: not given
row,Compound,Hepatotoxicity
1,CCOc1nc2cccc(C(=O)O)c2n1Cc1ccc(-c2ccccc2-c2nnn[nH]2)cc1,DILI negative (test set)
2,CCCc1nc2c(C)cc(-c3nc4ccccc4n3C)cc2n1Cc1ccc(-c2ccccc2C(=O)O)cc1,DILI negative (training set)
3,CCCCC(=O)N(Cc1ccc(-c2ccccc2-c2nnn[nH]2)cc1)[C@H](C(=O)O)C(C)C,DILI negative (test set)
4,CC(C)(C)NCC(O)c1cc(O)cc(O)c1.O=S(=O)(O)O (stereo unspecified),DILI positive (test set)
5,COc1cccc(OC)c1C(=O)N[C@@H]1C(=O)N2[C@@H]1SC(C)(C)[C@@H]2C(=O)[O-].[Na+],DILI positive (training set)
6,CN[C@@H]1[C@H](O)[C@H](NC)[C@H]2O[C@@]3(O)C(=O)C[C@@H](C)O[C@H]3O[C@@H]2[C@H]1O.Cl,DILI positive (test set)
7,CCO.C[C@H]1c2cccc(O)c2C(=O)C2=C(O)[C@]3(O)C(=O)C(C(N)=O)=C(O)[C@@H](N(C)C)[C@@H]3[C@@H](O)[C@@H]21.Cl.O,DILI positive (training set)
8,CCN(CC)CCNC(=O)c1cc(Cl)c(N)cc1OC.Cl,DILI positive (training set)
9,CNS(=O)(=O)Cc1ccc2[nH]cc(CCN(C)C)c2c1,DILI negative (training set)
10,CN(C)CCN(Cc1cccs1)c1ccccn1,DILI positive (test set)
11,CCCCCOC(=O)c1ccccc1C(=O)OCCCCC,DILI positive (test set)
12,CC1=C(CC(=O)O)c2cc(F)ccc2/C1=C\c1ccc([S+](C)[O-])cc1 (stereo unspecified),DILI positive (training set)
13,CCOC(=O)[C@H](CCc1ccccc1)N[C@@H](C)C(=O)N1Cc2ccccc2C[C@H]1C(=O)O,DILI positive (training set)
14,S=C=Nc1ccc2ccccc2c1,DILI negative (test set)
15,CO/N=C(/C(=O)N[C@@H]1C(=O)N2C(C(=O)[O-])=C(CSc3nc(=O)c(O)nn3C)CS[C@H]12)c1csc(N)n1.[Na+],DILI positive (test set)
16,O=C1NC(=O)C(O)(O)C(=O)N1,DILI negative (training set)
17,Oc1ccccc1Br,DILI positive (test set)
18,O=C(O)COc1ccc(C(=O)c2cccs2)c(Cl)c1Cl,DILI positive (test set)
19,O=C1NCN(c2ccccc2)C12CCN(CCCC(c1ccc(F)cc1)c1ccc(F)cc1)CC2,DILI positive (test set)
20,C[n+]1ccc(-c2cc[n+](C)cc2)cc1,DILI positive (test set)
21,Nc1ccc(Cc2ccc(N)cc2)cc1,DILI positive (test set)
22,C=C1CC[C@@]2(O)[C@H]3Cc4ccc(O)c5c4[C@@]2(CCN3CC2CC2)[C@H]1O5,DILI negative (training set)
23,"ClCCCl [1,2-DICHLOROETHANE]",DILI positive (test set)

row,Compound,Hepatotoxicity
1,"Clc1ccc(Cl)cc1 [1,4-DICHLOROBENZENE]",DILI positive (test set)
2,"FCCCCCF [1,5-DIFLUOROPENTANE]",DILI positive (test set)
3,S=C=Nc1cccc2ccccc12 [1-NAPHTHYLISOTHIOCYANATE],DILI positive (test set)
4,"O=[N+]([O-])c1ccc(O)c([N+](=O)[O-])c1 [2,4-DINITROPHENOL]",DILI positive (test set)
5,Nc1ccc(O)cc1 [4-AMINOPHENOL],DILI negative (test set)
6,Nc1nc(NC2CC2)c2ncn([C@H]3C=C[C@@H](CO)C3)c2n1 [ABACAVIR],DILI positive (test set)
7,CC(=O)CC(c1ccc([N+](=O)[O-])cc1)c1c(O)c2ccccc2oc1=O (stereo unspecified) [ACENOCOUMAROL],DILI positive (test set)
8,CC(=O)Nc1ccc(O)cc1 [ACETAMINOPHEN],DILI positive (training set)
9,CC(=O)Nc1nnc(S(N)(=O)=O)s1 [ACETAZOLAMIDE],DILI positive (training set)
10,CC(=O)c1ccc(S(=O)(=O)NC(=O)NC2CCCCC2)cc1 [ACETOHEXAMIDE],DILI positive (training set)
11,CC(=O)N[C@@H](CS)C(=O)O [ACETYLCYSTEINE],DILI negative (test set)
12,COc1cc(C)c(/C=C/C(C)=C/C=C/C(C)=C/C(=O)O)c(C)c1C [ACITRETIN],DILI positive (training set)
13,N[C@H](C(=O)O)[C@@H]1CC(Cl)=NO1 [ACIVICIN],DILI negative (training set)
14,CC[C@@]1(O)C[C@H](O[C@H]2C[C@H](N(C)C)[C@H](O[C@H]3C[C@H](O)[C@H](O[C@H]4CCC(=O)[C@H](C)O4)[C@H](C)O3)[C@H](C)O2)c2c(cc3c(c2O)C(=O)c2c(O)cccc2C3=O)[C@H]1C(=O)OC.Cl [ACLARUBICIN HYDROCHLORIDE],DILI negative (test set)
15,Nc1ncnc2c1ncn2[C@@H]1O[C@H](CO)[C@@H](O)[C@H]1O [ADENOSINE],DILI negative (training set)
16,COc1cc2c(c3oc(=O)c4c(c13)CCC4=O)[C@@H]1C=CO[C@@H]1O2 [AFLATOXIN],DILI positive (test set)
17,CCCSc1ccc2nc(NC(=O)OC)[nH]c2c1 [ALBENDAZOLE],DILI positive (training set)
18,Oc1ncnc2[nH]ncc12 [ALLOPURINOL],DILI positive (training set)
19,C=CCO [ALLYL ALCOHOL],DILI positive (test set)
20,C=CCOC=O [ALLYL FORMATE],DILI positive (test set)
21,CCCN(CCC)C(=O)Cc1c(-c2ccc(Cl)cc2)nc2ccc(Cl)cn12 [ALPIDEM],DILI positive (test set)
22,Cl.NC12CC3CC(CC(C3)C1)C2 [AMANTADINE HYDROCHLORIDE],DILI negative (training set)
23,Cl.N=C(N)NC(=O)c1nc(Cl)c(N)nc1N.O.O [AMILORIDE HYDROCHLORIDE],DILI negative (training set)

row,Compound,Hepatotoxicity
1,Cl.O=C(O)CCCCCCNC1c2ccccc2CCc2ccccc21 [AMINEPTINE HYDROCHLORIDE],DILI positive (test set)
2,Nc1ccc(C(=O)[O-])cc1.[K+] [AMINOBENZOATE POTASSIUM],DILI negative (training set)
3,NCCCCCC(=O)O [AMINOCAPROIC ACID],DILI negative (test set)
4,CCC1(c2ccc(N)cc2)CCC(=O)NC1=O (stereo unspecified) [AMINOGLUTETHIMIDE],DILI negative (training set)
5,Nc1ccc(C(=O)O)c(O)c1 [AMINOSALICYLIC ACID],DILI positive (training set)
6,CN(C)CCC=C1c2ccccc2CCc2ccccc21.Cl [AMITRIPTYLINE HYDROCHLORIDE],DILI negative (training set)
7,Cl.N [AMMONIUM CHLORIDE],DILI negative (training set)
8,Clc1ccc2c(c1)C(N1CCNCC1)=Nc1ccccc1O2 [AMOXAPINE],DILI negative (training set)
9,CC1(C)S[C@@H]2[C@H](NC(=O)[C@H](N)c3ccc(O)cc3)C(=O)N2[C@H]1C(=O)O [AMOXICILLIN],DILI negative (test set)
10,C[C@@H]1[C@H](O)[C@@H](C)/C=C/C=C/C=C/C=C/C=C/C=C/C=C/[C@H](O[C@@H]2O[C@H](C)[C@@H](O)[C@H](N)[C@@H]2O)C[C@@H]2O[C@](O)(C[C@@H](O)C[C@@H](O)[C@H](O)CC[C@@H](O)C[C@@H](O)CC(=O)O[C@H]1C)C[C@H](O)[C@H]2C(=O)O [AMPHOTERICIN B],DILI negative (test set)
11,CC1(C)S[C@@H]2[C@H](NC(=O)[C@H](N)c3ccccc3)C(=O)N2[C@H]1C(=O)[O-].[Na+] [AMPICILLIN SODIUM],DILI negative (test set)
12,COc1cc(NS(C)(=O)=O)ccc1Nc1c2ccccc2nc2ccccc12.Cl [AMSACRINE HYDROCHLORIDE],DILI positive (training set)
13,CCOC(=O)C1(c2ccccc2)CCN(CCc2ccc(N)cc2)CC1.Cl [ANILERIDINE HYDROCHLORIDE],DILI negative (test set)
14,N=C(N)NCCC[C@H](N)C(=O)O [ARGININE],DILI negative (training set)
15,O=[As][As+](=O)[O-] (stereo unspecified) [ARSENIC TRIOXIDE],DILI positive (test set)
16,O=C1O[C@H]([C@@H](O)CO)C(O)=C1O [ASCORBIC ACID],DILI negative (training set)
17,CC(=O)Oc1ccccc1C(=O)O [ASPIRIN],DILI negative (training set)
18,COc1ccc(CCN2CCC(Nc3nc4ccccc4n3Cc3ccc(F)cc3)CC2)cc1 [ASTEMIZOLE],DILI negative (training set)
19,CNCC[C@@H](Oc1ccccc1C)c1ccccc1 [ATOMOXETINE],DILI positive (test set)
20,C=C1[C@@H]2CCC3[C@@](CC[C@@H]4[C@H](C(=O)O)C[C@@H](O[C@@H]5O[C@H](CO)[C@@H](OS(=O)(=O)[O-])[C@H](OS(=O)(=O)[O-])[C@H]5OC(=O)CC(C)C)C[C@@]34C)(C2)[C@@H]1O.[K+].[K+] (stereo partly specified) [ATRACTYLOSIDE],DILI positive (training set)
21,[N-]=[N+]=CC(=O)OC[C@H](N)C(=O)O [AZASERINE],DILI positive (training set)
22,CN1CCC(=C2c3ccccc3CCc3cccnc32)CC1.O=C(O)/C=C\C(=O)O.O=C(O)/C=C\C(=O)O [AZATADINE MALEATE],DILI positive (test set)

# Same assay, conditions: Liver
row,Compound,Hepatotoxicity
1,Cl.NCCNCCNCCN,DILI positive (test set)
2,CCN(CC)Cc1cc(Nc2ccnc3cc(Cl)ccc23)ccc1O.Cl.Cl.Cl,DILI positive (test set)
3,N#CC(C#N)=NNc1ccc(OC(F)(F)F)cc1,DILI positive (training set)
4,CC(=O)OCC[N+](C)(C)C.[Cl-] [ACETYLCHOLINE CHLORIDE],DILI negative (training set)
5,CCCCc1oc2ccccc2c1C(=O)c1cc(I)c(OCCN(CC)CC)c(I)c1 [AMIODARONE],DILI positive (training set)
6,CC(C)NCC(O)COc1ccc(CC(N)=O)cc1 (stereo unspecified) [ATENOLOL],DILI negative (training set)
7,Nc1ncn([C@@H]2O[C@H](CO)[C@@H](O)[C@H]2O)c(=O)n1 [AZACITIDINE],DILI positive (test set)
8,Cn1cnc([N+](=O)[O-])c1Sc1ncnc2nc[nH]c12 [AZATHIOPRINE],DILI positive (training set)
